# Measurements as given in PubChem BioAssay (NCI).
#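 These data come from cells grown in 96-well plates and exposed to compound for 48 hours at five concentrations. At the GI50, growth is halved. Definition used: TGI = concentration required for complete inhibition of growth.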
# How the values were obtained:
# Experiment in all cases: DTP human tumour cell line panel, 48 h
# [1] = system: MCF7 breast
# [2] = system: SK-MEL-2 melanoma
# [3] = system: RPMI-8226 leukemia
# [4] = system: K-562 leukemia
# [5] = system: SW-620 colon
# [6] = system: MOLT-4 leukemia
# [7] = system: CCRF-CEM leukemia
# [8] = system: NCI-H522 lung
# [9] = system: SF-539 CNS
# [10] = system: SK-MEL-5 melanoma
# [11] = system: COLO 205 colon
# [12] = system: SF-295 CNS
# [13] = system: U251 CNS
# [14] = system: ACHN renal
# [15] = system: NCI-H460 lung
# [16] = system: SK-MEL-28 melanoma
# [17] = system: EKVX NSCLC
# [18] = system: PC-3 prostate
# [19] = system: HL-60(TB) leukemia
# [20] = system: T-47D breast
# [21] = system: HOP-62 NSCLC
# [22] = system: A498 renal
# [23] = system: IGROV1 ovarian
# [24] = system: RXF 393 renal
# [25] = system: SNB-19 CNS
# [26] = system: A549 NSCLC
# [27] = system: MDA-MB-231 breast
# [28] = system: NCI-H23 lung
# [29] = system: MDA-N
# [30] = system: MDA-MB-435
# [31] = system: SN12C renal
# [32] = system: TK-10 renal
# [33] = system: SF-268 CNS
# [34] = system: OVCAR-4 ovarian
# [35] = system: MALME-3M melanoma
# [36] = system: HCT-15 colon
# [37] = system: UO-31 renal
# [38] = system: UACC-257 melanoma
# [39] = system: HT29 colon
# [40] = system: 786-0 renal
# [41] = system: OVCAR-8 ovarian
# [42] = system: CAKI-1 renal
# [43] = system: SK-OV-3 ovarian
# [44] = system: HOP-92 NSCLC
# [45] = system: UACC-62 melanoma
# [46] = system: LOX IMVI melanoma
# [47] = system: KM12 colon
# [48] = system: HCC-2998 colon
# [49] = system: M14 melanoma
# [50] = system: OVCAR-5 ovarian
# [51] = system: OVCAR-3 ovarian
# [52] = system: NCI/ADR-RES ovarian
# [53] = system: HCT-116 colon
# [54] = system: DU-145 prostate
# [55] = system: NCI-H226 lung
# [56] = system: SR leukemia
# [57] = system: SNB-75 CNS
# [58] = system: HS 578T breast
# [59] = system: BT-549 breast
structure (smiles),measurement,setting,value
Cc1cn(CC2=NCC(O)CN2)c(=O)[nH]c1=O (stereo not given),TGI,[1],> 100 µM
same,TGI,[2],> 100 µM
same,TGI,[3],> 100 µM
same,TGI,[4],> 100 µM
same,TGI,[5],> 100 µM
same,TGI,[6],> 100 µM
same,TGI,[7],> 100 µM
same,TGI,[8],> 100 µM
same,TGI,[9],> 100 µM
same,TGI,[10],> 100 µM
same,TGI,[11],> 100 µM
same,TGI,[12],> 100 µM
same,TGI,[13],> 100 µM
same,TGI,[14],> 100 µM
same,TGI,[15],> 100 µM
same,TGI,[16],> 100 µM
same,TGI,[17],> 100 µM
same,TGI,[18],> 100 µM
same,TGI,[19],> 100 µM
same,TGI,[20],> 100 µM
same,TGI,[21],> 100 µM
same,TGI,[22],> 100 µM
same,TGI,[23],> 100 µM
same,TGI,[24],> 100 µM
same,TGI,[25],> 100 µM
same,TGI,[26],> 100 µM
same,TGI,[27],> 100 µM
same,TGI,[28],> 100 µM
same,TGI,[29],> 100 µM
same,TGI,[30],> 100 µM
same,TGI,[31],> 100 µM
same,TGI,[32],> 100 µM
same,TGI,[33],> 100 µM
same,TGI,[34],> 100 µM
same,TGI,[35],> 100 µM
same,TGI,[36],> 100 µM
same,TGI,[37],> 100 µM
same,TGI,[38],> 100 µM
same,TGI,[39],> 100 µM
same,TGI,[40],> 100 µM
same,TGI,[41],> 100 µM
same,TGI,[42],> 100 µM
same,TGI,[43],> 100 µM
same,TGI,[44],> 100 µM
same,TGI,[45],> 100 µM
same,TGI,[46],> 100 µM
same,TGI,[47],> 100 µM
same,TGI,[48],> 100 µM
same,TGI,[49],> 100 µM
same,TGI,[50],> 100 µM
same,TGI,[51],> 100 µM
same,TGI,[52],> 100 µM
same,TGI,[53],> 100 µM
same,TGI,[54],> 100 µM
same,TGI,[55],> 100 µM
Cn1cc(-c2csc(-c3c[nH]c4ccc(F)cc34)n2)c2cccnc21,GI50,[1],1.69 µM
same,TGI,[1],> 68.4 µM
same,GI50,[2],2.78 µM
same,TGI,[2],> 29.5 µM
same,GI50,[3],> 25.4 µM
same,TGI,[3],> 100 µM
same,GI50,[4],0.416 µM
same,TGI,[4],> 100 µM
same,GI50,[5],0.749 µM
same,TGI,[5],> 100 µM
same,GI50,[6],10.6 µM
same,TGI,[6],> 100 µM
same,GI50,[7],6.26 µM
same,TGI,[7],> 100 µM
same,GI50,[8],0.463 µM
same,TGI,[8],14.7 µM
same,GI50,[9],5.41 µM
same,TGI,[9],> 59.5 µM
same,GI50,[10],1.27 µM
same,TGI,[10],> 45.3 µM
same,GI50,[56],0.57 µM
same,TGI,[56],> 81.2 µM
same,GI50,[57],2.61 µM
same,TGI,[57],40 µM
same,GI50,[11],1.22 µM
same,TGI,[11],> 56.4 µM
same,GI50,[12],0.755 µM
same,TGI,[12],27 µM
same,GI50,[13],1.52 µM
same,TGI,[13],17 µM
same,GI50,[14],8.87 µM
same,TGI,[14],> 100 µM
same,GI50,[15],0.612 µM
same,TGI,[15],> 47.4 µM
same,GI50,[16],11.4 µM
same,TGI,[16],> 100 µM
same,GI50,[17],8.87 µM
same,TGI,[17],> 100 µM
same,GI50,[18],6.94 µM
same,TGI,[18],> 60.3 µM
same,GI50,[19],5.85 µM
same,TGI,[19],> 100 µM
same,GI50,[20],2.33 µM
same,TGI,[20],> 73.2 µM
same,GI50,[21],3.11 µM
same,TGI,[21],35.2 µM
same,GI50,[22],18.6 µM
same,TGI,[22],> 100 µM
same,GI50,[23],0.804 µM
same,TGI,[23],> 39.9 µM
same,GI50,[24],5.65 µM
same,TGI,[24],> 70.5 µM
same,GI50,[25],6.25 µM
same,TGI,[25],65.7 µM
same,GI50,[26],1.09 µM
same,TGI,[26],> 45.4 µM
same,GI50,[27],5.79 µM
same,TGI,[27],> 100 µM
same,GI50,[28],11.9 µM
same,TGI,[28],> 100 µM
same,GI50,[30],0.194 µM
same,TGI,[30],0.586 µM
same,GI50,[31],10.8 µM
same,TGI,[31],> 100 µM
same,GI50,[32],5.08 µM
same,TGI,[32],31.6 µM
same,GI50,[33],7.73 µM
same,TGI,[33],> 93.6 µM
same,GI50,[34],12.3 µM
same,TGI,[34],> 100 µM
same,GI50,[35],0.236 µM
same,TGI,[35],8.35 µM
same,GI50,[58],> 56.6 µM
same,TGI,[58],> 100 µM
same,GI50,[36],0.737 µM
same,TGI,[36],> 100 µM
same,GI50,[37],5.37 µM
same,TGI,[37],32.2 µM
same,GI50,[38],3.81 µM
same,TGI,[38],> 100 µM
same,GI50,[39],0.355 µM
same,TGI,[39],3.66 µM
same,GI50,[40],13.9 µM
same,TGI,[40],> 68.4 µM
same,GI50,[41],2.99 µM
same,TGI,[41],47.3 µM
same,GI50,[42],1.42 µM
same,TGI,[42],> 60.8 µM
same,GI50,[43],10.5 µM
same,TGI,[43],> 74.8 µM
same,GI50,[44],4.25 µM
same,TGI,[44],> 48.9 µM
same,GI50,[45],1.98 µM
same,TGI,[45],> 100 µM
same,GI50,[46],1.45 µM
same,TGI,[46],> 100 µM
same,GI50,[47],0.704 µM
same,TGI,[47],> 100 µM
same,GI50,[48],21.9 µM
same,TGI,[48],> 100 µM
same,GI50,[49],0.787 µM
same,TGI,[49],> 100 µM
same,GI50,[50],> 69.3 µM
same,TGI,[50],> 100 µM
same,GI50,[51],0.62 µM
same,TGI,[51],17.5 µM
same,GI50,[52],0.45 µM
same,TGI,[52],> 100 µM
same,GI50,[53],0.729 µM
same,TGI,[53],> 100 µM
same,GI50,[54],14.3 µM
same,TGI,[54],> 100 µM
same,TGI,[59],> 100 µM
same,GI50,[55],5.22 µM
same,TGI,[55],> 100 µM
